Experiment: recombinant barcode read abundance after kanamycin selection (control-corrected) (log10(CPM+1)); higher = more efficient recombination; sequences stand for … in AGTGCAGAGAAAATCGGCCAGTTTTCTCTGCCTGCAGTCCGCATGCCGT…AGATTTATGCAGCGGACTGCCTTTCTCCCAAAGTGATAAACCGGACAGTATCATGGACCGGTTTTCCCGGTAATCCGTATTTGCAAGGTTGGTTTCACT; site = the 11-nt target
Summary of the method: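 For this pooled screen, each oligo contained a promoter, a target, a barcode and the J23119-driven first 104 bases of the bridge RNA. Gibson cloning placed it into a vector supplying the remaining 73 bp and a T7-inducible recombinase, and the pool was co-electroporated into E. coli with a donor plasmid. Recombination efficiency is derived from barcode counts per million at recombinant junctions after averaging and control correction, and is expressed on a log scale as log10(CPM+1), with selection on chloramphenicol/ampicillin/kanamycin plus 0.1 mM IPTG against a chloramphenicol/ampicillin LB agar control.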
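Also: IS621 recombinase and bridge RNA in Escherichia coli cells.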

Sequence | recombinant barcode read abundance (log10)
GAGGGCCCTTGGGTTCTAACCTGTTGCTG (site GAGGGCCCTCG) | 2.03
GAGGGCCCTTGGGTTCTAACCTGTTGCTG (site GAGGGCCCTCT) | 1.56
GAGGGCTCTTGGGTTCTAACCTGTTGCGG (site AGTTCACCTTA) | 0.0921
GAGGGCTCTTGGGTTCTAACCTGTTGCGG (site GAGGGCTCTCC) | 2.73
GAGGGGTCTTGGGTTCTAACCTGTTGCAC (site CAGGCGTCTGT) | 0.122
GAGGGGTCTTGGGTTCTAACCTGTTGCAC (site GAGGGGTCTGT) | 2.81
GAGGGTCCTTGGGTTCTAACCTGTTGCAT (site GAGGGTCCTAA) | 0.573
GAGGGTCCTTGGGTTCTAACCTGTTGCAT (site GAGGGTCCTAC) | 0.542
GAGGGTCCTTGGGTTCTAACCTGTTGCAT (site GAGGGTCCTAG) | 1.65
GAGGGTCCTTGGGTTCTAACCTGTTGCAT (site GAGGGTCCTAT) | 2.74
GAGGTAACTTGGGTTCTAACCTGTTGCAC (site GAGGTAACTGT) | 1.66
GAGGTAACTTGGGTTCTAACCTGTTGCAC (site TGTACGCCTAG) | 0.0446
GAGGTAACTTGGGTTCTAACCTGTTGCCT (site GAAGTAACTAG) | 0.0669
GAGGTAACTTGGGTTCTAACCTGTTGCCT (site GACGTAACTAG) | 1.23
GAGGTAACTTGGGTTCTAACCTGTTGCCT (site GAGGTAACTAG) | 0.0487
GAGGTAACTTGGGTTCTAACCTGTTGCCT (site GATGTAACTAG) | 0.822
GAGTACTCTTGGGTTCTAACCTGTTGCTA (site GAGTACTCTTA) | 1.8
GAGTACTCTTGGGTTCTAACCTGTTGCTA (site GAGTCTTCTTA) | 0.00735
GAGTAGTCTTGGGTTCTAACCTGTTGCTT (site GAGTAGACTAA) | 0.941
GAGTAGTCTTGGGTTCTAACCTGTTGCTT (site GAGTAGTCTAA) | 2.05
GAGTCGTCTTGGGTTCTAACCTGTTGCTT (site GAGCCATCTAA) | 0.402
GAGTCGTCTTGGGTTCTAACCTGTTGCTT (site GAGTCGTCTAA) | 1.45

Sequence | recombinant barcode read abundance (log10)
GAGTGAACTTGGGTTCTAACCTGTTGCCA (site GAGTGAACTTG) | 0.849
GAGTGAACTTGGGTTCTAACCTGTTGCCA (site GTGTGTACTTG) | 0.435
GAGTGCCCTTGGGTTCTAACCTGTTGCTT (site GAGTGCCCTAA) | 0.78
GAGTGCCCTTGGGTTCTAACCTGTTGCTT (site GTGTGGCCTAA) | 0.128
GAGTGGCCTTGGGTTCTAACCTGTTGCAT (site GAGTGGCCTAA) | 0.242
GAGTGGCCTTGGGTTCTAACCTGTTGCAT (site GAGTGGCCTAC) | 0.385
GAGTGGCCTTGGGTTCTAACCTGTTGCAT (site GAGTGGCCTAG) | 0.318
GAGTGGCCTTGGGTTCTAACCTGTTGCAT (site GAGTGGCCTAT) | 0.883
GAGTGGCCTTGGGTTCTAACCTGTTGCGG (site GAGTAGCCTCC) | 0.831
GAGTGGCCTTGGGTTCTAACCTGTTGCGG (site GAGTCGCCTCC) | 0.0473
GAGTGGCCTTGGGTTCTAACCTGTTGCGG (site GAGTGGCCTCC) | 1.84
GAGTGGCCTTGGGTTCTAACCTGTTGCGG (site GAGTTGCCTCC) | 0.00446
GAGTGGCCTTGGGTTCTAACCTGTTGCTT (site GAGTGGCCTAA) | 1.54
GAGTGGCCTTGGGTTCTAACCTGTTGCTT (site GAGTGGCCTAC) | 0.494
GAGTGGCCTTGGGTTCTAACCTGTTGCTT (site GAGTGGCCTAG) | 0.068
GAGTGGCCTTGGGTTCTAACCTGTTGCTT (site GAGTGGCCTAT) | 0.541
GAGTTACCTTGGGTTCTAACCTGTTGCGT (site GAGTTACCTAC) | 2.6
GAGTTACCTTGGGTTCTAACCTGTTGCGT (site GAGTTCCCTAC) | 0.192
GAGTTACCTTGGGTTCTAACCTGTTGCGT (site GAGTTGCCTAC) | 0.229
GAGTTACCTTGGGTTCTAACCTGTTGCGT (site GAGTTTCCTAC) | 0.0625
GAGTTCACTTGGGTTCTAACCTGTTGCCT (site GAGTTCACTAG) | 0.618
GAGTTCACTTGGGTTCTAACCTGTTGCCT (site GGGTTCACTCG) | 0.0995

Sequence | recombinant barcode read abundance (log10)
GAGTTCGCTTGGGTTCTAACCTGTTGCGG (site GAGTTCGCTCC) | 1.08
GAGTTCGCTTGGGTTCTAACCTGTTGCGG (site TAGTCCGCTCC) | 0
GAGTTGTCTTGGGTTCTAACCTGTTGCGG (site CTCGCCACTAG) | 0.0798
GAGTTGTCTTGGGTTCTAACCTGTTGCGG (site GAGTTGTCTCC) | 1.83
GATAACGCTTGGGTTCTAACCTGTTGCCT (site ATGGTACCTTA) | 0.0115
GATAACGCTTGGGTTCTAACCTGTTGCCT (site GATAACGCTAG) | 1.05
GATACGCCTTGGGTTCTAACCTGTTGCCT (site GATACGACTAG) | 0.0197
GATACGCCTTGGGTTCTAACCTGTTGCCT (site GATACGCCTAG) | 0.134
GATACGCCTTGGGTTCTAACCTGTTGCCT (site GATACGGCTAG) | 0.167
GATACGCCTTGGGTTCTAACCTGTTGCCT (site GATACGTCTAG) | 0.139
GATACGTCTTGGGTTCTAACCTGTTGCCT (site GATACGACTAG) | 0.352
GATACGTCTTGGGTTCTAACCTGTTGCCT (site GATACGCCTAG) | 0.187
GATACGTCTTGGGTTCTAACCTGTTGCCT (site GATACGGCTAG) | 0.195
GATACGTCTTGGGTTCTAACCTGTTGCCT (site GATACGTCTAG) | 0.623
GATAGAACTTGGGTTCTAACCTGTTGCTT (site GAGAGGACTAA) | 0.204
GATAGAACTTGGGTTCTAACCTGTTGCTT (site GATAGAACTAA) | 0.94
GATAGGACTTGGGTTCTAACCTGTTGCCT (site GATAGGACTAG) | 0.647
GATAGGACTTGGGTTCTAACCTGTTGCCT (site GATGGGACTCG) | 0
GATATAGCTTGGGTTCTAACCTGTTGCCT (site GATAGAGCTCG) | 0.54
GATATAGCTTGGGTTCTAACCTGTTGCCT (site GATATAGCTAG) | 1.06
GATCAACCTTGGGTTCTAACCTGTTGCCT (site GATCAACCTAG) | 1.62
GATCAACCTTGGGTTCTAACCTGTTGCCT (site GCTCAACCTAG) | 0.0583

Sequence | recombinant barcode read abundance (log10)
GATCAACCTTGGGTTCTAACCTGTTGCCT (site GGTCAACCTAG) | 0.0197
GATCAACCTTGGGTTCTAACCTGTTGCCT (site GTTCAACCTAG) | 0.235
GATCACCCTTGGGTTCTAACCTGTTGCAT (site CGAGTGTCTTA) | 0.193
GATCACCCTTGGGTTCTAACCTGTTGCAT (site GATCACCCTAT) | 1.68
GATCGATCTTGGGTTCTAACCTGTTGCAT (site GATCGATCTAA) | 0.0308
GATCGATCTTGGGTTCTAACCTGTTGCAT (site GATCGATCTAC) | 0.163
GATCGATCTTGGGTTCTAACCTGTTGCAT (site GATCGATCTAG) | 0.307
GATCGATCTTGGGTTCTAACCTGTTGCAT (site GATCGATCTAT) | 0.666
GATGAGACTTGGGTTCTAACCTGTTGCCG (site GATGAGACTCG) | 2.22
GATGAGACTTGGGTTCTAACCTGTTGCCG (site GCTGAGACTCG) | 0.223
GATGAGTCTTGGGTTCTAACCTGTTGCCT (site GATGAGTCTAA) | 0.71
GATGAGTCTTGGGTTCTAACCTGTTGCCT (site GATGAGTCTAG) | 1.9
GATGCCTCTTGGGTTCTAACCTGTTGCCT (site GAAGCATCTAG) | 0.147
GATGCCTCTTGGGTTCTAACCTGTTGCCT (site GATGCCTCTAG) | 2.06
GATGCGACTTGGGTTCTAACCTGTTGCCG (site GATGCGACTCG) | 0.968
GATGCGACTTGGGTTCTAACCTGTTGCCG (site GATGTGACTAG) | 0.121
GATGCTACTTGGGTTCTAACCTGTTGCCA (site GATCCTACTTG) | 0.124
GATGCTACTTGGGTTCTAACCTGTTGCCA (site GATGCTACTTG) | 0.0236
GATGCTTCTTGGGTTCTAACCTGTTGCTT (site AATGCTTCTAA) | 0.101
GATGCTTCTTGGGTTCTAACCTGTTGCTT (site GATGCTTCTAA) | 0.223
